Test results from US12053459B2, “CDK2 inhibitors and methods of using the same” (Cedilla Therapeutics, Inc., priority 2021, dated 2024).

Columns and labels:
Kuramochi cells = test: BrdU cell proliferation assay (colorimetric ELISA), Kuramochi cells; type: cell-based; details: class symbols A-D
Procedure, shortened: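 Kuramochi cells (2,000/well, with Kuramochi RB^KO cells as a specificity control) were treated with a 4-point, 3-fold dilution series made from 10 mM compound stocks and left for 4 days at 37 °C. Proliferation was measured by 1 h BrdU labelling, then anti-BrdU peroxidase ELISA read at 450 nm. Signals were background-subtracted and normalized to DMSO wells.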

CDK2/Cyclin E1(14-475) = CDK2/Cyclin E1(14-475) (Homo sapiens, UniProt P24941); test: Caliper LabChip EZ Reader mobility shift assay, inhibition of CDK2/Cyclin E1 activity; type: biochemical; details: class symbols A-D
Procedure, shortened: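 CDK2/Cyclin E1(14-475) pre-incubated 30 min with compound and ATP, then reaction started with 5-FAM-QSPKKG-CONH2; final 2.5 nM enzyme, 100 μM ATP, 1.5 μM peptide, HEPES pH 7.5. Stopped with EDTA after 100 min; substrate/product conversion by capillary electrophoresis mobility shift, IC50 from four-parameter fit.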

SMILES	IC50 (Kuramochi cells)	IC50 (CDK2/Cyclin E1(14-475))
CNC(=O)[C@H](CCCc1ccccc1)NC(=O)C1CN(C(=O)c2cc(-c3ccccc3)n[nH]2)CC2CN(C(=O)c3ccc(OC(C)C)c(OC)c3)CC21 (some centres unmarked) [I-168]	> 10 µM	> 10 µM
COc1cc(C(=O)N2CC3CN(C(=O)Cc4c[nH]c5cc(Cl)ccc45)CC(C(=O)N[C@H](C(=O)NCCCCCNC(=O)OC(C)(C)C)C(C)OCc4ccccc4)C3C2)ccc1OC(C)C (single isomer, unassigned) [I-260]	> 10 µM	0.5 to 5 µM
CNC(=O)[C@H](CCCc1ccccc1)NC(=O)C1CN(C(=O)Cc2ccccn2)CC2CN(C(=O)c3ccc(OC(C)C)c(OC)c3)CC21 (some centres unmarked) [I-155]	> 10 µM	> 10 µM
CNC(=O)[C@H](CCCc1cccc(O)c1)NC(=O)C1CN(C(=O)Cc2c[nH]c3cc(Cl)ccc23)CC2CN(C(=O)c3ccc(OC(C)C)c(OC)c3)CC21 (single isomer, unassigned) [I-153]	> 10 µM	0.5 to 5 µM
CNC(=O)[C@H](CCCc1ccccc1)NC(=O)C1CN(C(=O)c2cn(C)c3ccccc23)CC2CN(C(=O)c3ccc(OC(C)C)c(OC)c3)CC21 (some centres unmarked) [I-159]	> 10 µM	> 10 µM
CNC(=O)[C@H](CCCc1ccccc1)NC(=O)C1CN(C(=O)Cc2c[nH]c3cc(Cl)ccc23)CC2CN(C(=O)c3cc(-c4ccccc4)n(C)n3)CC21 (some centres unmarked) [I-71]	> 10 µM	> 10 µM
CNC(=O)[C@H](CCCc1ccccc1)NC(=O)C1CN(C(=O)Cc2cn(CCOC)c3ccccc23)CC2CN(C(=O)c3ccc(OC(C)C)c(OC)c3)CC21 (some centres unmarked) [I-218]	> 10 µM	> 10 µM
CNC(=O)[C@H](CCCc1ccccc1)NC(=O)C1CN(C(=O)c2cc3cccc(C)c3[nH]2)CC2CN(C(=O)c3ccc(OC(C)C)c(OC)c3)CC21 (some centres unmarked) [I-170]	> 10 µM	> 10 µM
CNC(=O)[C@H](CCCc1ccccc1)NC(=O)C1CN(C(=O)Cc2c[nH]c3cc(OCC4CC4)ccc23)CC2CN(C(=O)c3ccc(OC(C)C)c(OC)c3)CC21 (some centres unmarked) [I-234]	> 10 µM	> 10 µM
CNC(=O)[C@H](CCCc1ccccc1O)NC(=O)C1CN(C(=O)Cc2c[nH]c3cc(Cl)ccc23)CC2CN(C(=O)c3ccc(OC(C)C)c(OC)c3)CC21 (some centres unmarked) [I-127]	> 10 µM	0.5 to 5 µM
CNC(=O)[C@H](CCCc1ccccc1)NC(=O)C1CN(C(=O)Cc2cn(C)c3cc(Cl)ccc23)CC2CN(C(=O)c3ccc(OC(C)C)c(OC)c3)CC21 (some centres unmarked) [I-225]	> 10 µM	0.5 to 5 µM
CNC(=O)[C@@H](NC(=O)C1CN(C(=O)Cc2c[nH]c3cc(Cl)ccc23)CC2CN(C(=O)c3ccc(OC(C)C)c(OC)c3)CC21)[C@H](C)OCC1CCCCC1 (some centres unmarked) [I-107]	0.5 to 5 µM	≤ 0.5 µM
CNC(=O)[C@H](CCCC(C)C)NC(=O)C1CN(C(=O)Cc2c[nH]c3cc(Cl)ccc23)CC2CN(C(=O)c3ccc(OC(C)C)c(OC)c3)CC21 (some centres unmarked) [I-97]	> 10 µM	0.5 to 5 µM
COc1cc(C(=O)N2CC3CN(C(=O)Cc4c[nH]c5cc(Cl)ccc45)CC(C(=O)NC4CCCN(C(=O)c5ccccc5)C4)C3C2)ccc1OC(C)C (centres unmarked) [I-89]	> 10 µM	> 10 µM
CNC(=O)[C@H](CCCc1ccccc1)NC(=O)C1CN(C(=O)Cc2cnccn2)CC2CN(C(=O)c3ccc(OC(C)C)c(OC)c3)CC21 (some centres unmarked) [I-230]	> 10 µM	> 10 µM
CNC(=O)[C@H](CCCc1ccccc1)NC(=O)C1CN(C(=O)c2cccc(-c3cccnc3)c2)CC2CN(C(=O)c3ccc(OC(C)C)c(OC)c3)CC21 (some centres unmarked) [I-210]	> 10 µM	> 10 µM
CNC(=O)[C@H](CCCc1ccccc1)NC(=O)C1CN(C(=O)Cc2coc3cc(Cl)ccc23)CC2CN(C(=O)c3ccc(OC(C)C)c(OC)c3)CC21 (some centres unmarked) [I-204]	> 10 µM	0.5 to 5 µM
CNC(=O)[C@H](CCCc1cccc2[nH]nnc12)NC(=O)C1CN(C(=O)Cc2c[nH]c3cc(Cl)ccc23)CC2CN(C(=O)c3ccc(OC(C)C)c(OC)c3)CC21 (some centres unmarked) [I-139]	> 10 µM	0.5 to 5 µM
CNC(=O)[C@H](C/C=C/c1ccccc1)NC(=O)C1CN(C(=O)Cc2c[nH]c3cc(Cl)ccc23)CC2CN(C(=O)c3ccc(OC(C)C)c(OC)c3)CC21 (some centres unmarked) [I-136]	> 10 µM	0.5 to 5 µM
